Key:
Type in all cases: in vivo
Wheat [1] = test: Pre-emergence herbicidal activity (Example 31); parameters: key: 0-3 scale: 0 = 0-25% damage, 3 = 75-99% kill, 3+ = 100% kill; conditions: after three weeks
Procedure, shortened: (§1)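 Visual damage score at three weeks: 0 = 0–25% damage, 3 = 75–99% kill, 3+ = 100% kill. Soil boxes with seeds sown 2 cm deep were sprayed before emergence with water-diluted emulsifiable concentrate or suspension, then grown in a glasshouse alongside unsprayed controls.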

Polygonum aviculare [2] = test: Post-emergence herbicidal test, young pot plants (Example 33); conditions: 2.0 kg/ha, after 14 days
Procedure, shortened: (§2)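 Damage scored 0–5 versus untreated controls (0 = 0–20% damage, 5 = complete kill): 14 d for sprayed young pot plants, 21 d for seeds sown in fibre trays, sprayed on the levelled soil surface, then covered thinly with soil. Spray: aqueous dilution of a Span 80/Tween 20/methylcyclohexanone emulsion.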

Rape = test: as above; conditions: 2.0 kg/ha, after 14 days
Procedure, shortened: as §2

Senecio vulgaris = test: as above; conditions: after 14 days
Procedure, shortened: as §2

Wild Oats [3] = test: Pre-emergence herbicidal activity (Example 31); conditions: after three weeks
Procedure, shortened: as §1

Wheat [4] = test: Post-emergence herbicidal activity (Example 32); parameters: key: 0-3 scale: 0 = 0-25% damage, 3 = 75-99% kill, 3+ = 100% kill; conditions: 3 weeks after spraying
Procedure, shortened: (§3)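 Seeds sown in soil 2 cm deep; monocots and dicots in separate boxes. Seedlings grown under glass to 10–12.5 cm, then sprayed with aqueous dilutions of emulsifiable concentrate or suspension formulations. Boxes returned to glasshouse for 3 weeks and injury rated visually (0–3, 3+ total kill).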

Winter wheat = test: Post-emergence herbicidal test, young pot plants (Example 33); parameters: key: 0 = 0-20% damage, 5 = complete kill, vs untreated control; conditions: after 14 days
Protocol: (§4) The compounds were formulated for test by mixing an appropriate amount with 5 ml of an emulsion prepared by diluting 160 ml of a solution containing 21.S g per litre of "Span" 80 and 78.2 g per litre of "Tween" 20 in methylcyclohexanone to 500 ml with water. "Span" 80 is a Trade Mark for a surface-active agent comprising sorbitan monolaurate. "Tween" 20 is a Trade Mark for a surface-active agent comprising a condensate of sorbitan monolaurate with 20 molar proportions of ethylene oxide. Each 5 ml emulsion containing a test compound was'then diluted to 40 ml with water and sprayed on to young pot plants (post-emergence test) of the species named in Table 5 below. Damage to test plants was assessed after 14 days on a scale of 0 to 5 where 0 is 0 to 20% damage and 5 is complete kill. In a test for pre-emergence herbicidal activity, seeds of the test plants were sown in a shallow slit formed in the surface of soil in fibre trays. The surface was then levelled and sprayed, and fresh soil then spread thinly over the sprayed surface. Assessment of herbicidal damage was carried out after 21 days using the same scale of 0 to 5 as the post-emergence test. In both cases the degree of herbicidal damage was assessed by comparison with untreated control plants. A dash (-) means that no experiment was carried out.

Rice = test: Pre-emergence herbicidal test, fibre trays (Example 33); parameters: key: 0 is 0 to 20% damage; 5 is complete kill; conditions: after 21 days
Protocol: as §4

Japanese millet = test: Post-emergence herbicidal activity (Example 32); conditions: 3 weeks after spraying
Procedure, shortened: as §3

Mustard = test: Post-emergence herbicidal activity (Example 32); conditions: 3 weeks after spraying
Procedure, shortened: as §3

Ipomea = test: Post-emergence herbicidal activity (Example 32); conditions: 3 weeks after spraying
Procedure, shortened: as §3

Ryegrass = test: Post-emergence herbicidal activity (Example 32); conditions: 3 weeks after spraying
Procedure, shortened: as §3

Polygonum aviculare [5] = test: Pre-emergence herbicidal test, fibre trays (Example 33); conditions: after 21 days
Procedure, shortened: as §2

Chenopodium album = test: as above; conditions: 2.0 kg/ha, after 21 days
Procedure, shortened: as §2

Amaranthus retroflexus = test: as above; conditions: after 21 days
Procedure, shortened: as §2

Wild Oats [6] = test: Post-emergence herbicidal activity (Example 32); conditions: 3 weeks after spraying
Procedure, shortened: as §3

SMILES | damage to plants, Wh (Wheat [1]; 1 kg/ha) | damage to plants, Wh (Wheat [1]; 5 kg/ha) | damage to test plants, Pi (Polygonum aviculare [2]) | damage to test plants, Rp (Rape) | damage to test plants, Sn (Senecio vulgaris; 2.0 kg/ha) | damage to plants, Ot (Wild Oats [3]; 1 kg/ha) | damage to plants, Ot (Wild Oats [3]; 5 kg/ha) | damage to plants, Wh (Wheat [4]; 1 kg/ha) | damage to plants, Wh (Wheat [4]; 5 kg/ha) | damage to test plants, Ww (Winter wheat; 2.0 kg/ha) | herbicidal damage, Rc (Rice; 2.0 kg/ha) | damage to plants, Jm (Japanese millet; 1 kg/ha) | damage to plants, Jm (Japanese millet; 5 kg/ha) | damage to plants, Ms (Mustard; 1 kg/ha) | damage to plants, Ms (Mustard; 5 kg/ha) | damage to plants, Ip (Ipomea; 1 kg/ha) | damage to plants, Ip (Ipomea; 5 kg/ha) | damage to plants, Rg (Ryegrass; 1 kg/ha) | damage to plants, Rg (Ryegrass; 5 kg/ha) | herbicidal damage, Pi (Polygonum aviculare [5]; 2.0 kg/ha) | further results
COC(=O)C(C)Oc1ccc(N(C)c2ccc(Cl)cc2Cl)cc1 (stereo not shown) [Compound 1, Methyl 2-[4-(2,4-dichloro-N-methylanilino)phenoxy]-propionate] | 0 (0 represents from 0 to 25% damage) | 0 (0 represents from 0 to 25% damage) | 0 (0 is 0 to 20% damage) | 2 | 1 | 0 (0 represents from 0 to 25% damage) | 0 (0 represents from 0 to 25% damage) | 0 (0 represents 0 to 25% damage) | 1 | 3 | 0 (0 is 0 to 20% damage) | 3+ (3+ represents 100% kill) | 3+ (3+ represents 100% kill) | 0 (0 represents 0 to 25% damage) | 0 (0 represents 0 to 25% damage) | 0 (0 represents 0 to 25% damage) | 0 (0 represents 0 to 25% damage) | 3+ (3+ represents 100% kill) | 3+ (3+ represents 100% kill) | – | –
COC(=O)C(C)Oc1ccc(N(C)c2ccc(Cl)cc2[N+](=O)[O-])cc1 (stereo not shown) [Compound 27] | 0 (0 represents from 0 to 25% damage) | 1 | 0 (0 is 0 to 20% damage) | 0 (0 is 0 to 20% damage) | 1 | – | – | 2 | 3+ (3+ represents 100% kill) | 4 | 5 | 3+ (3+ represents 100% kill) | 3+ (3+ represents 100% kill) | 0 (0 represents 0 to 25% damage) | 0 (0 represents 0 to 25% damage) | 0 (0 represents 0 to 25% damage) | 0 (0 represents 0 to 25% damage) | 3+ (3+ represents 100% kill) | 3+ (3+ represents 100% kill) | 0 (0 is 0 to 20% damage) | herbicidal damage, Ca (Chenopodium album): 0 (0 is 0 to 20% damage); herbicidal damage, Am (Amaranthus retroflexus; 2.0 kg/ha): 0 (0 is 0 to 20% damage)
COC(=O)C(C)Oc1ccc(Nc2ccc(Cl)cc2[N+](=O)[O-])cc1 (stereo not shown) [Compound 28] | 0 (0 represents from 0 to 25% damage) | 2 | – | – | – | 2 | 3+ (3+ represents 100% kill) | 3 (3 represents 75 to 99% kill) | 3+ (3+ represents 100% kill) | – | – | 3+ (3+ represents 100% kill) | 3+ (3+ represents 100% kill) | 0 (0 represents 0 to 25% damage) | 0 (0 represents 0 to 25% damage) | 0 (0 represents 0 to 25% damage) | 0 (0 represents 0 to 25% damage) | 3+ (3+ represents 100% kill) | 3+ (3+ represents 100% kill) | – | damage to test plants, Sn (Senecio vulgaris; 1.0 kg/ha): 0 (0 is 0 to 20% damage); herbicidal damage, Pi (Polygonum aviculare [5]; 1.0 kg/ha): 0 (0 is 0 to 20% damage); herbicidal damage, Am (Amaranthus retroflexus; 1.0 kg/ha): 0 (0 is 0 to 20% damage); damage to test plants, Ww (Winter wheat; 1.0 kg/ha): 4; herbicidal damage, Rc (Rice; 1.0 kg/ha): 1
COC(=O)C(C)Oc1ccc(Nc2ccc(Br)cc2[N+](=O)[O-])cc1 (stereo not shown) [Compound 29] | 1 | 1 | 0 (0 is 0 to 20% damage) | 1 | 4 | 1 | 3+ (3+ represents 100% kill) | 2 | 3+ (3+ represents 100% kill) | 4 | 3 | 3 (3 represents 75 to 99% kill) | 3+ (3+ represents 100% kill) | 0 (0 represents 0 to 25% damage) | 0 (0 represents 0 to 25% damage) | 0 (0 represents 0 to 25% damage) | 0 (0 represents 0 to 25% damage) | 3 (3 represents 75 to 99% kill) | 3+ (3+ represents 100% kill) | 0 (0 is 0 to 20% damage) | herbicidal damage, Ca (Chenopodium album): 0 (0 is 0 to 20% damage); herbicidal damage, Am (Amaranthus retroflexus; 2.0 kg/ha): 0 (0 is 0 to 20% damage)
COC(=O)C(C)Oc1ccc(N(C)c2ccc(Br)cc2[N+](=O)[O-])cc1 (stereo not shown) [Compound 30] | 0 (0 represents from 0 to 25% damage) | 0 (0 represents from 0 to 25% damage) | 0 (0 is 0 to 20% damage) | 1 | 2 | 1 | 3 (3 represents 75 to 99% kill) | 2 | 3+ (3+ represents 100% kill) | 4 | 5 | 3+ (3+ represents 100% kill) | 3+ (3+ represents 100% kill) | 0 (0 represents 0 to 25% damage) | 0 (0 represents 0 to 25% damage) | 0 (0 represents 0 to 25% damage) | 0 (0 represents 0 to 25% damage) | 3+ (3+ represents 100% kill) | 3+ (3+ represents 100% kill) | 0 (0 is 0 to 20% damage) | herbicidal damage, Ca (Chenopodium album): 0 (0 is 0 to 20% damage); herbicidal damage, Am (Amaranthus retroflexus; 2.0 kg/ha): 1
C#CCN(c1ccc(OC(C)C(=O)OC)cc1)c1ccc(C(F)(F)F)cc1[N+](=O)[O-] (stereo not shown) [Compound 81] | – | – | 0 (0 is 0 to 20% damage) | 0 (0 is 0 to 20% damage) | – | – | – | 2 | 3 (3 represents 75 to 99% kill) | 4 | 4 | 3+ (3+ represents 100% kill) | 3+ (3+ represents 100% kill) | 0 (0 represents 0 to 25% damage) | 0 (0 represents 0 to 25% damage) | 0 (0 represents 0 to 25% damage) | 0 (0 represents 0 to 25% damage) | 3 (3 represents 75 to 99% kill) | 3+ (3+ represents 100% kill) | 0 (0 is 0 to 20% damage) | herbicidal damage, Ca (Chenopodium album): 0 (0 is 0 to 20% damage); herbicidal damage, Am (Amaranthus retroflexus; 2.0 kg/ha): 0 (0 is 0 to 20% damage); damage to plants, Ot (Wild Oats [6]; 1 kg/ha): 3+ (3+ represents 100% kill); damage to plants, Ot (Wild Oats [6]; 5 kg/ha): 3+ (3+ represents 100% kill)

Reference: patent EP0013144A1, “Substituted diphenylamine derivatives, compositions and herbicidal uses thereof, and processes for their preparation” (ICI AUSTRALIA LIMITED, priority 1978, dated 1980)
